From PMC6044610 (ACS Omega, 2016)

Key:
[1] = tested on: P. falciparum (3D7) trophozoite development; type: cell-based, Plasmodium falciparum; details: 5 μM, ~24 h treatment from midring stage
[2] = cited from earlier work
[3] = tested on: P. falciparum (CQ-resistant) W2 strain; assay: In vitro antimalarial SYBR Green I fluorescence assay, Pf W2; type: cell-based; details: Plasmodium falciparum, W2, 72 h, read-out: IC50 Pf W2

In the case of `CCN(CC)CCCC(C)Nc1ccnc2cc(Cl)ccc12` (stereo not drawn) [CQ, chloroquine], the “hemozoin in the food vacuole / parasite development after treatment” value [1] is given as “no hemozoin was seen in the food vacuole”, the “log Kass with heme, reported value” [2] is given as 5.15 and the IC50 [3] is given as 430.6 ± 1.05 nM.
